Patent publication US20240382465A1, “AROMATIC ACETYLENE DERIVATIVE, AND PREPARATION METHOD THEREFOR AND USE THEREOF” (priority 2021, published 2024)
Values after ≈ are worked out from the molar mass of the structure shown. Where two headings read alike, the source gives them in different places.

Experiments:
[1] = biological target: recombinant Pseudomonas aeruginosa LpxC (Pseudomonas aeruginosa (strain ATCC 15692 / DSM 22644 / CIP 104116 / JCM 14847 / LMG 12228 / 1C / PRS 101 / PAO1), UniProt P47205); assay: Inhibition of LpxC enzymatic activity (fluorescamine assay); assay type: biochemical
Experimental: The degree of inhibition of the enzymatic activity of recombinant Pseudomonas aeruginosa LpxC by the compounds of the present disclosure under in vitro conditions was determined using the following method.
The experimental procedure is briefly described as follows: The test compound was first dissolved in DMSO to prepare a 10 mM stock solution. The reaction was carried out in a 96-well microplate. First, 20 μL of recombinant Pseudomonas aeruginosa LpxC (purchased from Signalway Antibody, product number AP74647-2) was added to each well, with a final concentration of 5 nM. 5 μL of the compound to be tested was then added, and the compound was diluted 4 times to 8 concentration points with a concentration range of 0.61-10,000 nM. 5 μL of LpxC substrate UDP-3-O—(R-3-hydroxydecanoyl)-GlcNAc (purchased from Biosynth Carbosynth, product number: mu75071) was added, with a final concentration of the substrate of 10 μM. The plate was incubated at 25° C. for 120 minutes. Then 20 μL of 2.0 mg/mL fluorescamine (purchased from sigmaaldrich, product number: F9015, solvent: 1:1 dimethylformamide/acetonitrile) was added to the reaction system, and mixed well for 10 minutes of reaction. Finally, 50 μL of 200 mM sodium phosphate buffer (pH 8.0) was added to terminate the reaction. Reading was carried out using a microplate reader (BMG), and the excitation and emission wavelengths were 390 and 495 nm respectively. By comparing with the fluorescence intensity ratio of the control group ([…]), the percentage inhibition rate of the compound at each concentration was calculated.

E. coli ATCC 25922 = assay: Antibacterial activity, MIC by broth microdilution (CLSI); assay type: cell-based; settings: Escherichia coli
Experimental: (§1) The in vitro minimum inhibitory concentration (MIC) was determined in accordance with the CLSI guidelines, and was measured using the broth microdilution method.
(§2) The experimental process is briefly described as follows: The test compound was dissolved in DMSO to prepare a […] stock solution, which was then prepared into 11 twice-diluted 100× high-concentration working solutions (the final concentration of the system was 64 μg/mL-0.06 μg/mL) using DMSO. The strains (K. pneumoniae ATCC13883 and E. coli ATCC 25922) frozen in −80° C. glycerol were inoculated into solid agar medium, placed in an incubator at 35° C. for 18-24 hours of incubation. After the preparation of strains was completed, an appropriate amount of solid plate culture was collected, resuspended in physiological saline, and mixed well. The bacterial suspension was adjusted to a suitable turbidity using a turbidity meter, containing approximately 1×10^8 cfu/mL bacteria. Then the bacterial suspension with the adjusted turbidity was diluted to a bacterial concentration of 5×10^5 cfu/ml using the culture medium for measurement, to complete the preparation of the inoculum solution. 198 μL of the inoculum solution was inoculated into a 96-well plate, and then added with 2 μL of a 100× high-concentration working solution of the compound. Then the 96-well plate was placed at 35° C. for 18 to 24 hours of incubation.

K. pneumoniae ATCC13883 = assay: as above; assay type: cell-based; settings: Klebsiella pneumoniae
Experimental: as §1, §2

[2] = recombinant P. aeruginosa LpxC 5 nM, substrate 10 μM, 25° C., 120 minutes, read-out: IC50
[3] = ATCC25922, E. coli ATCC 25922, 35° C., 18 to 24 hours, read-out: MIC(E. coli)
[4] = K. pneumoniae ATCC13883, 35° C., 18 to 24 hours, read-out: MIC(K. Pneumoniae)

Structure (SMILES) | IC50 [1, 2] | MIC (E. coli ATCC 25922; [3]) | MIC (K. pneumoniae ATCC13883; [4]) | IC50 [1] | MIC (E. coli ATCC 25922; ATCC25922, read-out: MIC(E. coli)) | MIC (K. pneumoniae ATCC13883; ATCC13883, read-out: MIC(K. Pneumoniae))
C[C@H](O)c1nccn1Cc1cc(-c2ccc(C#Cc3ccc(CN4CCC(O)CC4)cc3)cc2)on1 [Example 18, (S)-1-(4-((4-(3-((2-(1-hydroxyethyl)-1H-imidazol-1-yl)methyl)isoxazol-5-yl)phenyl)ethynyl)benzyl)piperidin-4-ol] | 9.84 nM | 2 µg/mL (≈ 4.14 µM) | 4 µg/mL (≈ 8.29 µM) | – | – | –
C[C@H](O)c1nccn1Cc1cc(-c2ccc(C#Cc3ccc(C(N)=O)cc3)cc2)on1 [Example 23, (S)-4-((4-(3-((2-(1-hydroxyethyl)-1H-imidazol-1-yl)methyl)isoxazol-5-yl)phenyl)ethynyl)benzamide] | 7.75 nM | 0.25 µg/mL (≈ 0.606 µM) | 1 µg/mL (≈ 2.42 µM) | – | – | –
C[C@H](O)c1nccn1Cc1cc(-c2ccc(C#Cc3ccc(C(=O)O)cc3)cc2)on1 [Example 24, (S)-4-((4-(3-((2-(1-hydroxyethyl)-1H-imidazol-1-yl)methyl)isoxazol-5-yl)phenyl)ethynyl)benzoic acid] | 22.2 nM | 4 µg/mL (≈ 9.68 µM) | 8 µg/mL (≈ 19.4 µM) | – | – | –
C[C@H](O)c1nccn1Cc1cc(-c2ccc(C#Cc3ccc(C(=O)NCCO)cc3)cc2)on1 [Example 25, (S)-N-(2-Hydroxyethyl)-4-((4-(3-((2-(1-hydroxyethyl)-1H-imidazol-1-yl)methyl)isoxazol-5-yl)phenyl)ethynyl)benzamide] | – | 1 µg/mL (≈ 2.19 µM) | 4 µg/mL (≈ 8.76 µM) | 20.3 nM | – | –
CC(=O)c1ccc(C#Cc2ccc(-c3cc(Cn4ccnc4[C@H](C)O)no3)cc2)cc1 [Example 26, (S)-1-(4-((4-(3-((2-(1-hydroxyethyl)-1H-imidazol-1-yl)methyl)isoxazol-5-yl)phenyl)ethynyl)phenyl)ethan-1-one] | 71.7 nM | 0.125 µg/mL (≈ 0.304 µM) | 0.5 µg/mL (≈ 1.22 µM) | – | – | –
C[C@H](O)c1nccn1Cc1cc(-c2ccc(C#Cc3ccc(CCC(=O)O)cc3)cc2)on1 [Example 27, (S)-3-(4-((4-(3-((2-(1-hydroxyethyl)-1H-imidazol-1-yl)methyl)isoxazol-5-yl)phenyl)ethynyl)phenyl)propanoic acid] | 4.25 nM | 1 µg/mL (≈ 2.27 µM) | 2 µg/mL (≈ 4.53 µM) | – | – | –
C[C@H](O)c1nccn1Cc1cc(-c2ccc(C#Cc3ccc(C(N)=O)nc3)cc2)on1 [Example 28, (S)-5-((4-(3-((2-(1-Hydroxyethyl)-1H-imidazol-1-yl)methyl)isoxazol-5-yl)phenyl)ethynyl)picolinamide] | – | 1 µg/mL (≈ 2.42 µM) | 2 µg/mL (≈ 4.84 µM) | 19.9 nM | – | –
C[C@H](O)c1nccn1Cc1cc(-c2ccc(C#Cc3ccc(OCCO)cc3)cc2)on1 [Example 29, (S)-1-(1-((5-(4-((4-(2-hydroxyethoxy)phenyl)ethynyl)phenyl)isoxazol-3-yl)methyl)-1H-imidazol-2-yl)ethan-1-ol] | 14 nM | – | – | – | 0.25 µg/mL (≈ 0.582 µM) | 0.25 µg/mL (≈ 0.582 µM)
C[C@H](O)c1nccn1Cc1cc(-c2ccc(C#Cc3ccc(C(O)CO)cc3)cc2)on1 (stereo partly drawn) [Example 30, 1-(4-((4-(3-((2-((S)-1-hydroxyethyl)-1H-imidazol-1-yl)methyl)isoxazol-5-yl)phenyl)ethynyl)phenyl)ethane-1,2-diol] | 12.7 nM | 0.5 µg/mL (≈ 1.16 µM) | 1 µg/mL (≈ 2.33 µM) | – | – | –
C[C@H](O)c1nccn1Cc1cc(-c2ccc(C#Cc3ccc(CNC4CCS(=O)(=O)C4)cc3)cc2)on1 (stereo partly drawn) [Example 31] | – | 2 µg/mL (≈ 3.87 µM) | 4 µg/mL (≈ 7.74 µM) | 6.06 nM | – | –
C[C@H](O)c1nccn1Cc1cc(-c2ccc(C#Cc3ccc(Cn4cccn4)cc3)cc2)on1 [Example 33, (S)-1-(1-((5-(4-((4-((1H-pyrazol-1-yl)methyl)phenyl)ethynyl)phenyl)isoxazol-3-yl)methyl)-1H-imidazol-2-yl)ethan-1-ol] | 28.1 nM | 0.125 µg/mL (≈ 0.278 µM) | 0.25 µg/mL (≈ 0.556 µM) | – | – | –
C[C@H](O)c1nccn1Cc1cc(-c2ccc(C#Cc3ccc(CNCCO)cc3)cc2)on1 [Example 34, (S)-2-((4-((4-(3-((2-(1-hydroxyethyl)-1H-imidazol-1-yl)methyl)isoxazol-5-yl)phenyl)ethynyl)benzyl)amino)ethan-1-ol] | – | 1 µg/mL (≈ 2.26 µM) | 2 µg/mL (≈ 4.52 µM) | 4.86 nM | – | –
C[C@H](O)c1nccn1Cc1cc(-c2ccc(C#Cc3ccc(CNCC(N)=O)cc3)cc2)on1 [Example 35, (S)-2-((4-((4-(3-((2-(1-hydroxyethyl)-1H-imidazol-1-yl)methyl)isoxazol-5-yl)phenyl)ethynyl)benzyl)amino)acetamide] | – | 0.25 µg/mL (≈ 0.549 µM) | 0.5 µg/mL (≈ 1.1 µM) | 14.9 nM | – | –
C[C@H](O)c1nccn1Cc1cc(-c2ccc(C#Cc3ccc(CN4CCC(O)CC4)nc3)cc2)on1 [Example 36, (S)-1-((5-((4-(3-((2-(1-hydroxyethyl)-1H-imidazol-1-yl)methyl)isoxazol-5-yl)phenyl)ethynyl)pyridin-2-yl)methyl)piperidin-4-ol] | 8.33 nM | 2 µg/mL (≈ 4.14 µM) | 4 µg/mL (≈ 8.27 µM) | – | – | –
C[C@H](O)c1nccn1Cc1cc(-c2ccc(C#Cc3ccc(CO)nc3)cc2)on1 [Example 37, (S)-1-(1-((5-(4-((6-(hydroxymethyl)pyridin-3-yl)ethynyl)phenyl)isoxazol-3-yl)methyl)-1H-imidazol-2-yl)ethan-1-ol] | 3.55 nM | 1 µg/mL (≈ 2.5 µM) | 2 µg/mL (≈ 4.99 µM) | – | – | –
C[C@H](O)c1nccn1Cc1cc(-c2ccc(C#Cc3cccc(OCC#N)c3)cc2)on1 [Example 38, (S)-2-(3-((4-(3-((2-(1-hydroxyethyl)-1H-imidazol-1-yl)methyl)isoxazol-5-yl)phenyl)ethynyl)phenoxy)acetonitrile] | 50.8 nM | 0.5 µg/mL (≈ 1.18 µM) | 1 µg/mL (≈ 2.36 µM) | – | – | –
C[C@H](O)c1nccn1Cc1cc(-c2ccc(C#Cc3ccc(CC(=O)O)nc3)cc2)on1 [Example 39, (S)-2-(5-((4-(3-((2-(1-hydroxyethyl)-1H-imidazol-1-yl)methyl)isoxazol-5-yl)phenyl)ethynyl)pyridin-2-yl)acetic acid] | 19.9 nM | 0.5 µg/mL (≈ 1.17 µM) | 1 µg/mL (≈ 2.33 µM) | – | – | –
C[C@H](O)c1nccn1Cc1cc(-c2ccc(C#Cc3ccc(CCC(N)=O)nc3)cc2)on1 [Example 40, (S)-3-(5-((4-(3-((2-(1-hydroxyethyl)-1H-imidazol-1-yl)methyl)isoxazol-5-yl)phenyl)ethynyl)pyridin-2-yl)propanamide] | 16.7 nM | 1 µg/mL (≈ 2.27 µM) | 4 µg/mL (≈ 9.06 µM) | – | – | –
C[C@H](O)c1nccn1Cc1cc(-c2ccc(C#Cc3ccc(C(=O)N4CCN(C)CC4)cc3)cc2)on1 [Example 42, (S)-(4-((4-(3-((2-(1-hydroxyethyl)-1H-imidazol-1-yl)methyl)isoxazol-5-yl)phenyl)ethynyl)phenyl)(4-methylpiperazin-1-yl)methanone] | 5.78 nM | 2 µg/mL (≈ 4.04 µM) | 4 µg/mL (≈ 8.07 µM) | – | – | –
CNC(=O)c1ccc(C#Cc2ccc(-c3cc(Cn4ccnc4[C@H](C)O)no3)cc2)cc1 [Example 43, (S)-4-((4-(3-((2-(1-hydroxyethyl)-1H-imidazol-1-yl)methyl)isoxazol-5-yl)phenyl)ethynyl)-N-methylbenzamide] | 36.7 nM | 1 µg/mL (≈ 2.34 µM) | 8 µg/mL (≈ 18.8 µM) | – | – | –
C[C@H](O)c1nccn1Cc1cc(-c2ccc(C#Cc3ccc(OC4CCN(C)CC4)cc3)cc2)on1 [Example 44, (S)-1-(1-((5-(4-((4-((1-methylpiperidin-4-yl)oxy)phenyl)ethynyl)phenyl)isoxazol-3-yl)methyl)-1H-imidazol-2-yl)ethan-1-ol] | 18.6 nM | 2 µg/mL (≈ 4.14 µM) | 8 µg/mL (≈ 16.6 µM) | – | – | –
C[C@H](O)c1nccn1Cc1cc(-c2ccc(C#Cc3ccc(CO)cc3)cc2)on1 [Example 46, (S)-1-(1-((5-(4-((4-(hydroxymethyl)phenyl)ethynyl)phenyl)isoxazol-3-yl)methyl)-1H-imidazol-2-yl)ethan-1-ol] | 23 nM | 0.25 µg/mL (≈ 0.626 µM) | 0.5 µg/mL (≈ 1.25 µM) | – | – | –
